The record followed here is patent publication US12091426B2, “Bifunctional degraders of hematopoietic progenitor kinase and therapeutic uses thereof” (Nurix Therapeutics, Inc., priority 2021, dated 2024).

This assay has as its target T1, HPK1 (Homo sapiens, UniProt Q92918).
T1 construct: A HiBiT tag was introduced by CRISPR on the N terminus of HPK1 in Jurkat cells; host or cells: Jurkat cells (ATCC TIB-152), monoclonal line with CRISPR knock-in of HiBiT at the endogenous HPK1 locus
The experiment in a line: HPK1 Cellular HiBit Degradation Assay. It is filed as cell-based. To be noted: HiBiT HPK1 Jurkat cells, 24 hrs; for DC50: concentration at which 50% of HPK1 was remaining, read-out: DC50 Category; for Dmax: Jurkat, maximum degradation vs DMSO vehicle control, read-out: Dmax Category. An outline of the steps:
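Jurkat cells with CRISPR knock-in N-terminal HiBiT-HPK1 were treated with CTMs (11-point, 3.16-fold, 10 uM to 0.1 nM final) for 24 hrs at 37° C. HiBiT lytic luminescence, with parental Jurkat as background and DMSO as 100%, gave % HPK1 remaining; four-parameter fit yielded DC50 and Dmax (100 minus lowest % remaining).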
In general terms: With HiBiT, luminescence reflects the tagged protein that the partner subunit can reach.

Some results are limits rather than exact numbers.

T1 sequence (Q92918 whole entry): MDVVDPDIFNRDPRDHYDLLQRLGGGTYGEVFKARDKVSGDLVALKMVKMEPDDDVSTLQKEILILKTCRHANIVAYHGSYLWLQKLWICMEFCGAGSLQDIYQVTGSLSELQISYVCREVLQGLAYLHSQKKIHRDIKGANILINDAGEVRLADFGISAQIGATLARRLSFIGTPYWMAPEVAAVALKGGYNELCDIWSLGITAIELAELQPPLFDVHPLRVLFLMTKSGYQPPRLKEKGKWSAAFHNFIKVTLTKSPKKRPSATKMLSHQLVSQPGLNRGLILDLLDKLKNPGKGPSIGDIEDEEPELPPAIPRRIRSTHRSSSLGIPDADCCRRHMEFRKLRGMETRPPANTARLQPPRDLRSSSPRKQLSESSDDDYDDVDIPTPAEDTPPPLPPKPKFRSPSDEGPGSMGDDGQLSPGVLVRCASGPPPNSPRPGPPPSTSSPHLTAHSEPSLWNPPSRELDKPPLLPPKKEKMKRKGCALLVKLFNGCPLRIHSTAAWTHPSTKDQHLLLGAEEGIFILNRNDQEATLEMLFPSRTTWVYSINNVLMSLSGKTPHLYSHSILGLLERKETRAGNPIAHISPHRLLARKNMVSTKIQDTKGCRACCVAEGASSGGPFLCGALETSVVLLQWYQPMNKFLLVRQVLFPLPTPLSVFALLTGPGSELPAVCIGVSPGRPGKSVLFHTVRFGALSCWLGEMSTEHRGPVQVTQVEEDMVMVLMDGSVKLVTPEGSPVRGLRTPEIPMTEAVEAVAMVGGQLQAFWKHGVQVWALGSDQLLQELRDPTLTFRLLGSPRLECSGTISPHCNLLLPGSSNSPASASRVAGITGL

As usually defined, the DC50 is the midpoint of the concentration-degradation curve. In general, Dmax refers to the largest share of the target that was removed. As for `CC(C)n1cnc2cc(-c3ccc4c(c3)N([C@H]3C[C@@H](N5CCCCC5)C3)C(=O)C43CCN(C(=O)C4CCN(C(=O)[C@H]5CC[C@H](C(=O)N6CCc7ccc(C8CCC(=O)NC8=O)cc7C6)CC5)CC4)CC3)nc(Nc3ccccc3F)c21` (mixture of isomers) [Example 50, (3RS)-3-{2-[(1R,4R)-4-{4-[(6-{4-[(2-fluorophenyl)amino]-3-(propan-2-yl)-3H-imidazo[4,5-c]pyridin-6-yl}-2-oxo-1-[(1S,3S)-3-(piperidin-1-yl)cyclobutyl]-1,2-dihydrospiro[indole-3,4′-piperidin]-1′-yl)carbonyl]piperidine-1-carbonyl}cyclohexanecarbonyl]-1,2,3,4-tetrahydroisoquinolin-7-yl}piperidine-2,6-dione], the 50% degradation concentration (DC50) was below 100 nM and the Dmax lay in the range of 70 to 85%.
In the case of `CC(C)n1cnc2cc(-c3ccc4c(c3)N([C@H]3C[C@@H](N5CCCCC5)C3)C(=O)C43CCN(C(=O)C4CCN(C(=O)[C@H]5CC[C@H](C(=O)N6CCCc7cc(C8CCC(=O)NC8=O)ccc76)CC5)CC4)CC3)nc(Nc3ccccc3F)c21` (mixture of isomers) [Example 51, (3RS)-3-{1-[(1R,4R)-4-{4-[(6-{4-[(2-fluorophenyl)amino]-3-(propan-2-yl)-3H-imidazo[4,5-c]pyridin-6-yl}-2-oxo-1-[(1S,3S)-3-(piperidin-1-yl)cyclobutyl]-1,2-dihydrospiro[indole-3,4′-piperidin]-1′-yl)carbonyl]piperidine-1-carbonyl}cyclohexanecarbonyl]-1,2,3,4-tetrahydroquinolin-6-yl}piperidine-2,6-dione], the DC50 is below 100 nM and the Dmax fell in the range of 70 to 85%.
For `CC(C)n1cnc2cc(-c3ccc4c(c3)N([C@H]3C[C@@H](N5CCCCC5)C3)C(=O)C43CCN(C(=O)C4CCN(C(=O)[C@H]5CC[C@H](Nc6cc(C7CCC(=O)NC7=O)ccn6)CC5)CC4)CC3)nc(Nc3ccccc3F)c21` (mixture of isomers) [Example 52, (3RS)-3-(2-{[(1R,4R)-4-{4-[(6-{4-[(2-fluorophenyl)amino]-3-(propan-2-yl)-3H-imidazo[4,5-c]pyridin-6-yl}-2-oxo-1-[(1S,3S)-3-(piperidin-1-yl)cyclobutyl]-1,2-dihydrospiro[indole-3,4′-piperidin]-1′-yl)carbonyl]piperidine-1-carbonyl}cyclohexyl]amino}pyridin-4-yl)piperidine-2,6-dione], in that order: 500 to 1000 nM and 50 to 70%.
For `CC(C)n1cnc2cc(-c3ccc4c(c3)N([C@H]3C[C@@H](N5CCCCC5)C3)C(=O)C43CCN(C(=O)C4CCN(C(=O)[C@H]5CC[C@H](Nc6ccc(C7CCC(=O)NC7=O)cc6)CC5)CC4)CC3)nc(NC3CC3)c21` (mixture of isomers) [Example 53, (3RS)-3-(4-{[(1R,4R)-4-[4-({6-[4-(cyclopropylamino)-3-(propan-2-yl)-3H-imidazo[4,5-c]pyridin-6-yl]-2-oxo-1-[(1S,3S)-3-(piperidin-1-yl)cyclobutyl]-1,2-dihydrospiro[indole-3,4′-piperidin]-1′-yl}carbonyl)piperidine-1-carbonyl]cyclohexyl]amino}phenyl)piperidine-2,6-dione], in that order: 100 to 500 nM and 50 to 70%.
For `CC(C)n1cnc2cc(-c3ccc4c(c3)N([C@H]3C[C@@H](N5CCCCC5)C3)C(=O)C43CCN(C(=O)C4CCN(C(=O)[C@H]5CC[C@H](Nc6ccc(C7CCC(=O)NC7=O)cc6)CC5)CC4)CC3)nc(Nc3ccccc3F)c21` (mixture of isomers) [Example 54, (3RS)-3-(4-{[(1R,4R)-4-{4-[(6-{4-[(2-fluorophenyl)amino]-3-(propan-2-yl)-3H-imidazo[4,5-c]pyridin-6-yl}-2-oxo-1-[(1S,3S)-3-(piperidin-1-yl)cyclobutyl]-1,2-dihydrospiro[indole-3,4′-piperidin]-1′-yl)carbonyl]piperidine-1-carbonyl}cyclohexyl]amino}phenyl)piperidine-2,6-dione], the DC50 is below 100 nM and the maximal degradation (Dmax) was 70 to 85%.
Regarding `CC(C)n1cnc2cc(-c3ccc4c(c3)N([C@H]3C[C@@H](N5CCCCC5)C3)C(=O)C43CCN(C(=O)C4CCN(C(=O)[C@H]5CC[C@H](Nc6ccc(C7CCC(=O)NC7=O)cc6)CC5)CC4)CC3)nc(Nc3ccncc3F)c21` (mixture of isomers) [Example 55, (3RS)-3-(4-{[(1R,4R)-4-{4-[(6-{4-[(3-Fluoropyridin-4-yl)amino]-3-(propan-2-yl)-3H-imidazo[4,5-c]pyridin-6-yl}-2-oxo-1-[(1S,3S)-3-(piperidin-1-yl)cyclobutyl]-1,2-dihydrospiro[indole-3,4′-piperidin]-1′-yl)carbonyl]piperidine-1-carbonyl}cyclohexyl]amino}phenyl)piperidine-2,6-dione], the DC50 fell in the range of 100 to 500 nM and the greatest degradation seen (Dmax) is 50 to 70%.
For `CC(C)n1cnc2cc(-c3ccc4c(c3)N([C@H]3C[C@@H](N5CCCCC5)C3)C(=O)C43CCN(C(=O)C4CCN(C(=O)[C@H]5CC[C@H](Nc6cccc7c6C(=O)N(C6CCC(=O)NC6=O)C7=O)CC5)CC4)CC3)nc(NC3CC3)c21` (mixture of isomers) [Example 56, 2-[(3RS)-2,6-dioxopiperidin-3-yl]-4-{[(1R,4R)-4-[4-({6-[4-(cyclopropylamino)-3-(propan-2-yl)-3H-imidazo[4,5-c]pyridin-6-yl]-2-oxo-1-[(1S,3S)-3-(piperidin-1-yl)cyclobutyl]-1,2-dihydrospiro[indole-3,4′-piperidin]-1′-yl}carbonyl)piperidine-1-carbonyl]cyclohexyl]amino}-2,3-dihydro-1H-isoindole-1,3-dione], in that order: 500 to 1000 nM and 50 to 70%.
For `CC(C)n1cnc2cc(-c3ccc4c(c3)N([C@H]3C[C@@H](N5CCCCC5)C3)C(=O)C43CCN(C(=O)C4CCN(C(=O)[C@H]5CC[C@H](Nc6cccc7c6C(=O)N(C6CCC(=O)NC6=O)C7=O)CC5)CC4)CC3)nc(Nc3ccccc3F)c21` (mixture of isomers) [Example 57, 2-[(3RS)-2,6-dioxopiperidin-3-yl]-4-{[(1R,4R)-4-{4-[(6-{4-[(2-fluorophenyl)amino]-3-(propan-2-yl)-3H-imidazo[4,5-c]pyridin-6-yl}-2-oxo-1-[(1S,3S)-3-(piperidin-1-yl)cyclobutyl]-1,2-dihydrospiro[indole-3,4′-piperidin]-1′-yl)carbonyl]piperidine-1-carbonyl}cyclohexyl]amino}-2,3-dihydro-1H-isoindole-1,3-dione], in that order: 100 to 500 nM and 70 to 85%.
For `CC(C)n1cnc2cc(-c3ccc4c(c3)N([C@H]3C[C@@H](N5CCCCC5)C3)C(=O)C43CCN(C(=O)C4CCN(C(=O)[C@H]5CC[C@H](Nc6cncc(C7CCC(=O)NC7=O)c6)CC5)CC4)CC3)nc(Nc3ccccc3F)c21` (mixture of isomers) [Example 58, (3RS)-3-(5-{[(1R,4R)-4-{4-[(6-{4-[(2-fluorophenyl)amino]-3-(propan-2-yl)-3H-imidazo[4,5-c]pyridin-6-yl}-2-oxo-1-[(1S,3S)-3-(piperidin-1-yl)cyclobutyl]-1,2-dihydrospiro[indole-3,4′-piperidin]-1′-yl)carbonyl]piperidine-1-carbonyl}cyclohexyl]amino}pyridin-3-yl)piperidine-2,6-dione], in that order: 100 to 500 nM and 50 to 70%.
Turning to `CC(C)n1cnc2cc(-c3ccc4c(c3)N([C@H]3C[C@@H](N5CCCCC5)C3)C(=O)C43CCN(C(=O)C4CCN(C(=O)[C@H]5CC[C@H](Oc6ccc(C7CCC(=O)NC7=O)cc6)CC5)CC4)CC3)nc(NC3CC3)c21` (mixture of isomers) [Example 59, (3RS)-3-(4-{[(1R,4R)-4-[4-({6-[4-(cyclopropylamino)-3-(propan-2-yl)-3H-imidazo[4,5-c]pyridin-6-yl]-2-oxo-1-[(1S,3S)-3-(piperidin-1-yl)cyclobutyl]-1,2-dihydrospiro[indole-3,4′-piperidin]-1′-yl}carbonyl)piperidine-1-carbonyl]cyclohexyl]oxy}phenyl)piperidine-2,6-dione], the DC50 was below 100 nM and the Dmax was in the range of 50 to 70%.
For `CC(C)n1cnc2cc(-c3ccc4c(c3)N([C@H]3C[C@@H](N5CCCCC5)C3)C(=O)C43CCN(C(=O)C4CCN(C(=O)[C@H]5CC[C@H](Oc6ccc(C7CCC(=O)NC7=O)cc6)CC5)CC4)CC3)nc(Nc3ccccc3F)c21` (mixture of isomers) [Example 60, (3RS)-3-(4-{[(1R,4R)-4-{4-[(6-{4-[(2-fluorophenyl)amino]-3-(propan-2-yl)-3H-imidazo[4,5-c]pyridin-6-yl}-2-oxo-1-[(1S,3S)-3-(piperidin-1-yl)cyclobutyl]-1,2-dihydrospiro[indole-3,4′-piperidin]-1′-yl)carbonyl]piperidine-1-carbonyl}cyclohexyl]oxy}phenyl)piperidine-2,6-dione], in that order: below 100 nM and 70 to 85%.
For `CC(C)n1cnc2cc(-c3ccc4c(c3)N([C@H]3C[C@@H](N5CCCCC5)C3)C(=O)C43CCN(C(=O)C4CCN(C(=O)[C@H]5CC[C@H](Oc6ccc(C7CCC(=O)NC7=O)cc6)CC5)CC4)CC3)nc(Nc3ccncc3F)c21` (mixture of isomers) [Example 61, (3RS)-3-(4-{[(1R,4R)-4-{4-[(6-{4-[(3-fluoropyridin-4-yl)amino]-3-(propan-2-yl)-3H-imidazo[4,5-c]pyridin-6-yl}-2-oxo-1-[(1S,3S)-3-(piperidin-1-yl)cyclobutyl]-1,2-dihydrospiro[indole-3,4′-piperidin]-1′-yl)carbonyl]piperidine-1-carbonyl}cyclohexyl]oxy}phenyl)piperidine-2,6-dione], in that order: below 100 nM and 50 to 70%.
